Patent publication US10242153B2, “Method for determining the risk profile of neoplastic tissue” (NOVAZOI THERANOSTICS, priority 2014, dated 2019)

Tests used:
[1] = tested on: MDA-MB-231 (231) cells; assay: Peak subG1 fraction by flow cytometry (propidium iodide) after declustering drugs, 231 cells; type: cell-based, human
Method: (§1) To evaluate the impact of putative declustering drugs on cell cycle progression and hypodiploidy (<2N DNA content, which may indicate apoptotic cells), MDA-MB-231 (231), PC3, and HeLa cells were treated with different concentrations of declustering drugs, stained with propidium iodide, labeled with anti-MPM2 antibody, and then assessed by flow cytometry at multiple time points over 48 hr. […] The duration, highest degree, and rapidity of onset of MA varied between drugs, drug concentrations, and cell lines (data not shown). In general, the maximum MA achieved was less pronounced in Nos- and PJ-treated cells. Drug-induced onset of MA was corroborated by substantial increases in cyclin B1 levels in all cell lines. For most cases, prolonged MA (˜24 hr in duration) was followed by a substantial increase in the subG1 population fraction. […] Instances where the subGl fraction was elevated without cleaved caspase-3 may either represent caspase-independent cell death or the presence of hypodiploid cells whose fate is unclear. In general, no consistent associations between the extent, duration, or timing of MA within drugs or across cell lines was found.

[2] = tested on: mammary fibrocystic (MCF10A) cells; assay: Peak subG1 fraction after declustering drugs, non-malignant MCF10A cells; type: cell-based; conditions: for peak subG1 percent compared to controls: MCF10A cells; for Peak subG1 percents over 48 h: MCF10A
Method: as §1
(§2) To determine whether the CA-inducing activity of declustering drugs is restricted to cancer cells, two non-malignant cell lines, mammary fibrocystic (MCF10A) cells and adult human dermal fibroblasts (HDFs) were treated with these drugs. […] In comparison, 10 and 25 µM RBN increased peak CA over controls in interphase cells (p<0.001 and p=0.001, respectively), with the lower concentration dramatically augmenting peak CA to 56% of cells versus 15% for the higher dose (FIG. 13, panel B).
Importantly, a therapeutic window exists for several of these agents at the concentrations and in the cell lines tested compared to cancer cells.

[3] = tested on: HeLa cells; assay: Centrosome amplification (CA) by microscopy, HeLa cells; type: cell-based; conditions: for cells having CA (maximum extent) / increase in CA over controls: mitotic HeLa cells
Method: Consequently, CA was assessed in cultures treated with different concentrations of declustering drugs for 6, 12, 18, or 24 h and untreated controls via microscopy. Centrosomes were identified by γ-tubulin and centrin-2 colocalization at discrete foci. […] The peak percent CA detected over 24 h is shown in FIG. 13 (only statistically significant (P<0.05) increases over control values are represented in the Figures). To better understand the “potency” of drug-induced CA with time, the average fold change in CA over controls over 24 h was assessed (FIG. 12, panel A), whereby the extent of CA across time points (i.e., 6, 12, 18, and 24 hr) was averaged and then divided by the extent of CA in control (i.e., 0 hr). All of the drugs at least doubled the peak extent of CA in all cell lines tested (FIG. 12, panel A), although the final extent of CA could be small or large in magnitude depending on the initial centrosomal burden as shown in FIG. 11. […] The peak extent in interphase HeLa cells was somewhat less at 30.7% and 48.1% for 10 and 25 μM RBN, respectively (FIG. 13, panel A). For Nos and BN, there was no major difference in CA levels in interphase versus mitotic cells.

[4] = tested on: MCF10A cells; assay: Centrosome amplification (CA) by microscopy, MCF10A cells; type: cell-based
Method: Consequently, CA was assessed in cultures treated with different concentrations of declustering drugs for 6, 12, 18, or 24 h and untreated controls via microscopy. Centrosomes were identified by γ-tubulin and centrin-2 colocalization at discrete foci.
as §2

[5] = tested on: MDA-MB-231 (231), PC3, and HeLa cells; assay: Mitotic arrest (MA) metrics by flow cytometry (anti-MPM2) across cell lines; type: cell-based
Text: FIG. 10 depicts mitotic arrest metrics across cell lines for each declustering drug. […] A lack of box in the plot occurs when the median is very close (or equal) to the inter-quartile range limits, in which case notch is shown with a default height and starting point of whisker line extension indicates 25% or 75% position. Because the coarse-grained data are integers and the size of the data sets are small (n<8), in some cases the median, lower or upper inter-quartile range values, or the max or min values, may coincide in some combination. This figure broadly visualizes clustering and correlation in the coarse-grained data. For instance, non-integer values have no intrinsic meaning but, for instance, a median value of 4.4 indicates a concentration of categories recorded in categories 4 or 5. […] TRH=“time reach highest” value; CTP=“consecutive time points,” MA_totCTP=sum(MA_SnCTP for n=2 . . . 5).
To evaluate the impact of putative declustering drugs on cell cycle progression and hypodiploidy (<2N DNA content, which may indicate apoptotic cells), MDA-MB-231 (231), PC3, and HeLa cells were treated with different concentrations of declustering drugs, stained with propidium iodide, labeled with anti-MPM2 antibody, and then assessed by flow cytometry at multiple time points over 48 hr. […]

[6] = tested on: N1E-115 cells; assay: Golgi (GM130) and γ-tubulin co-immunostaining of drug-treated N1E-115 cells; type: cell-based, murine; conditions: data not shown
Text: The Golgi, which is primarily responsible for posttranslational modification and protein sorting, also functions as a microtubule-organizing center (MTOC). It has been hypothesized that supernumerary centrosomes may better organize the Golgi to enhance directional cell migration. To investigate what happens to the Golgi upon declustering drug-induced dispersal of the interphase centrosomal cluster, drug-treated N1E-115 cells were co-immunostained with GM130 (a cis-Golgi matrix protein crucial for maintaining its structure) and γ-tubulin.

[7] = tested on: N1E-115 cells; assay: Vinculin localization in serum-starved N1E-115 cells; type: cell-based, murine; conditions: serum-starved (SS) cells
Text: Vinculin stabilizes cell-substrate contacts in neuronal cells undergoing neuritogenesis, while activation by actin-binding proteins mobilizes vinculin to focal adhesions. To determine the localization of vinculin in the neurite extensions and the effect of declustering agents on its localization, N1E-115 cells were immunostained cells for vinculin and stained F-actin using rhodamine-phalloidin.

[8] = tested on: N1E-115 cells; assay: Ki67 and cleaved caspase-3 immunostaining of serum-starved N1E-115 cells; type: cell-based, murine; conditions: RedBr-Nos 5 μM, Griseofulvin 10 μM, PJ-34 10 μM
[9] = interphase HeLa cells, 25 μM, over 24 h

For `CN(C)CC(=O)Nc1ccc2[nH]c(=O)c3ccccc3c2c1` [PJ, PJ-34], the “Peak subG1 percents over 48 h” value ([1]; 10 μM) was 37.0%, the “Peak subG1 percents over 48 h” value ([1]; 25 μM) was 65.0% and the “maximum (peak) subG1 fraction relative to control” value ([1]; 25 μM) was 10.4 × control. For the same molecule, the “peak subG1 percent compared to controls” value [2] was “did not cause a significant increase”, the “Peak subG1 percents over 48 h” value ([2]; 10 μM) was 6.9% and the “Peak subG1 percents over 48 h” value ([2]; 25 μM) was 9.1%. For the same molecule, the “increase in peak CA extent over controls” value ([3]; interphase HeLa cells, 25 μM) was about 20 fold, the “peak (final) extent of CA” value [3, 9] was under 20% and the “peak extent of CA” value ([4]; interphase MCF10A cells, 10 μM) was 8 % of cells. For the same molecule, the “peak extent of CA versus controls” value ([4]; interphase and mitotic MCF10A cells, 25 μM) was “increased the peak extent of CA in interphase and mitotic cells”, the “mean time to peak MA (MA:TRH)” value ([5]; coarse-grained categories) was about 12 h and the “fragmentation of the interphase Golgi complex” value [6] was “interphase Golgi complex fragmented”. The “vinculin localization and focal adhesion points” value [7] was “less severe” and the Ki67-positive cells [8] was “high proportion of Ki67-positive cells”.
In the case of reduced-9-bromonoscapine [RBN], the “Peak subG1 percents over 48 h” value ([1]; 10 μM) is reported as 47.0%, the “Peak subG1 percents over 48 h” value ([1]; 25 μM) is reported as 80.8% and the “maximum (peak) subG1 fraction relative to control” value ([1]; 25 μM) is reported as 25 × control. For the same molecule, the “peak subG1 / toxicity in MCF10A cells versus cancer cell lines” value ([2]; 10 μM) was “smaller peak subG1 in MCF10A cells as compared to 231 cells”, the “susceptibility / toxicity in MCF10A cells versus cancer cell lines” value ([2]; 25 μM) was “much greater increases in toxicity to 231 and PC3 cells” and the “peak subG1 percent compared to controls” value [2] was “did increase peak SubG1”. For the same molecule, the “Peak subG1 percents over 48 h” value ([2]; 10 μM) was 36.4%, the “Peak subG1 percents over 48 h” value ([2]; 25 μM) was 44.0% and the “peak extent of CA” value ([3]; interphase HeLa cells, 10 μM, over 24 h) was 30.7%. For the same molecule, the “peak (final) extent of CA” value [3, 9] was 48.1%, the “cells having CA (maximum extent)” value ([3]; 10 μM) was 78% and the “increase in CA over controls” value ([3]; 10 μM) was “approximately 40 fold”. The “cells having CA (maximum extent)” value ([3]; 25 μM) was 42%, the “increase in CA over controls” value ([3]; 25 μM) was about 20 fold and the “CA / peak extent of CA versus control levels” value ([4]; interphase and mitotic MCF10A cells, both concentrations (10 and 25 μM), over 24 h) was “significantly increased the peak extent of CA”. The “peak MA (MA:HR), cells in MA” value ([5]; category near "4") was at least 30%, the “fragmentation of the interphase Golgi complex” value [6] was “most robust effect” and the “vinculin localization and focal adhesion points” value [7] was “complete internalization of vinculin and complete loss of focal adhesion points”. The Ki67-positive cells [8] was “high proportion of Ki67-positive cells”.
